BigSolDB 2.1

CN1COCNC1=N[N+](=O)[O-]
solubility (mole fraction)
Settings	293.15 K	298.15 K	303.15 K	308.15 K	313.15 K	318.15 K	323.15 K
in DMF	0.0947	0.113	0.12	0.138	0.141	0.165	0.166
in DMSO	0.0794	0.0978	0.104	0.115	0.12	0.123	0.14
in acetonitrile	0.0241	0.0318	0.0336	0.0411	0.0436	0.0547	0.0563
in dichloromethane	0.0126	0.0154	0.0162	0.0233	0.0234	0.0265	0.0277
in ethanol	0.00163	0.00212	0.00241	0.00351	0.00379	0.00445	0.00507
in ethyl acetate	0.00579	0.00614	0.00633	0.0074	0.00773	0.00866	0.0106
in ethylene glycol	0.00157	0.00248	0.00289	0.00439	0.00447	0.00527	0.00893
in isopropanol	0.00101	0.0013	0.0013	0.00175	0.00242	0.00285	0.00303
in methanol	0.00289	0.00422	0.00447	0.00532	0.00682	0.00759	0.00978
in methyl acetate	0.00741	0.00839	0.00936	0.0115	0.0124	0.0133	0.0157
in n-butanol	0.00199	0.00218	0.00234	0.00279	0.00308	0.00321	0.00362
in n-propanol	0.00109	0.00146	0.00195	0.00217	0.00247	0.00301	0.00441
